Reference: US9896476B1, “Glycyrrhetic acid derivatives” (KING SAUD UNIVERSITY, priority 2017, dated 2018)

Columns and labels:
[1] = test system: carrageenan-induced rat paw edema; assay: Carrageenan-induced rat paw edema; type: in vivo; settings: 10 μmol/kg s.c. 1 h prior to carrageenan; increase between 0 h and 4 h
Procedure: Male albino rats weighing 120-150 g were used in these experiments. The rats were kept in an animal house under standard conditions of light and temperature with free access to food and water. The animals were randomly divided into groups of six rats each for each experimental and control group. The paw edema was induced by subplantar injection of […] of 2% carrageenan solution in saline (0.9%). […] A control group was injected with DMSO only. The volume of paw edema (ml) was determined by means of a plethysmometer immediately after carrageenan injection and 4 h later. The increase in paw volume between 0 h and 4 h after carrageenan injection was measured. The percentage protection against inflammation was calculated according to the following formula: % Protection=100%×(Vc−Vd)/Vc where Vc is the 4 h increase in paw volume in the control animals (control) and Vd is the 4 h increase in paw volume in the test animals. Data are expressed as the mean±SEM. Significant difference between the control and test groups was determined using Student's t-test and P values. The difference in results was considered significant when P<0.001.

[2] = test system: cotton pellet-induced granuloma; assay: Cotton pellet-induced granuloma bioassay; type: in vivo, rat; settings: rat, compound-impregnated cotton pellets implanted s.c., 7 days, dose response 4, 7, 10 and 15 μmol
Procedure: An animal model cotton pellet-induced granuloma bioassay was used to determine ED50 for the compounds (2)-(4). Adult male Sprague Dawley rats (120-140 g), were used in the cotton pellet-induced granuloma bioassays. The rats were acclimated one week prior to use and allowed unlimited access to standard rat chow and water. Prior to the start of the experiment, the animals were randomly divided into groups of six rats each. Cotton pellet (35±1 mg) cut from dental rolls were impregnated with 0.2 ml (containing 0.01 mmol) of a solution of each of compounds (2)-(4) in chloroform, and the solvent was allowed to evaporate. Each cotton pellet was subsequently injected with 0.2 ml of an aqueous solution of antibiotics (1 mg penicillin G and 1.3 mg dihydrostreptomycin/ml). Two pellets were implanted subcutaneously, one in each axilla of the rat, under mild general anesthesia. One group of animals received the standard reference pharmaceutical indomethacin and the antibiotics at the same level. Pellets containing only the antibiotics were similarly implanted in control rats. Seven days later, the animals were sacrificed and the two cotton pellets, with adhering granulomas, were removed, dried for 48 h at 60° C. and weighed. The increment in dry weight (difference between the initial and final weight) was taken as a measure of the dry weight of granuloma±SEM. The dry weight of granuloma and the percentage reduction in dry weight of granuloma relative to the respective control value were calculated for all rats. The ED50 values were determined through dose response curves using doses of 4, 7, 10 and 15 μmol for each compound.

H+/K+-ATPase = biological target: T1, H+/K+-ATPase (Sus scrofa, UniProt P19156); assay: H+/K+-ATPase (proton pump) inhibition in membrane vesicles of stomach mucosa; type: biochemical; settings: pig gastric membrane vesicles, 37° C.; pre-incubation pH (6.0 or 7.4) not given
T1 construct: Membrane vesicles containing H^+/K^+-ATPase were prepared from pig stomachs; from tissue; host or cells: pig gastric mucosa membrane vesicles
Procedure: Membrane vesicles containing H^+/K^+-ATPase were prepared from pig stomachs obtained from a local slaughter house. Pigs were fasted overnight before slaughter. The gastric mucosa of four stomachs was rinsed with cold saturated NaCl solution for 3-5 min. The superficial cells, cell debris plus the mucus were wiped off with the edge of a plastic ruler and paper towels. The mucosa was scraped off. About 100 g of scrapings were divided into portions of 10 g and homogenized in 0.25 M sucrose with seven strokes in a Potter-Elvehjem Teflon-glass homogenizer. […] The pellet was discarded. The supernatant was centrifuged at 75,000 g for 1 h. The resulting microsomal pellet was homogenized in 30 ml 0.25 M sucrose. Aliquots of 15 ml were transferred to 100 ml centrifuge tubes and layered on top of step gradients, from the bottom comprising 25 ml 37% sucrose (w/v) and 45 ml 7.5% Ficoll (w/v) in 0.25 M sucrose. The tubes were centrifuged at 75,000 g for 1 h in a 6×100 ml ME angle rotor at 4° C. The gradient was then fractionated by pumping Fluoroinert 70 through narrow tubing in a fractionating cap down to the bottom of the tube. Fractions are collected from top through a center hole in the fractionating cap. The yield of vesicles in a typical preparation is about 50-75 mg protein. In order to maintain a stable vesicular structure for a long period of time, the vesicles were frozen at −70° C. under nitrogen, and could then be kept for several months without decrease of H^+/K^+-ATPase activity. The ATPase activity was measured at 37° C. as the release of inorganic phosphate (Pi) from ATP. […] Then, the medium of pH 6.0 is adjusted with HEPES/Tris buffer to pH 7.4. The enzyme reaction is started by addition of nigericin and Tris/ATP. The total reaction volume is 1 ml, containing 20 μg vesicular protein, 4 mM MgCl2, 10 mM KCl, 20 μM nigericin, 2 mM Tris-ATP, 10 mM HEPES and additionally 2 mM Pipes for the pre-incubation medium at pH 6.0. After […] at 37° C., the reaction is stopped by the addition of […] of 50% trichloroacetic acid. The denatured protein was spun down and the Pi content is determined according to Le Bel et al. (1978) and based on the reduction of a phosphomolybdate complex by p-methyl-aminophenol sulfate in a copper acetate buffer or according to Carter and Karl (1982) based on the reaction of phosphomolybdate with the basic dye malachite green. […] IC50 values of the test compound at different pH values were compared with IC50 values of the standard. Statistical differences (P<0.05) were calculated by Student's t-test.

pyloric ligation ulcer = assay: Pyloric ligation ulcer model (antiulcer activity); type: in vivo, rat; settings: rats, oral 30 min prior to pyloric ligation, 4 h, compounds 100 mg/kg, omeprazole 40 mg/kg
Procedure: Pyloric ligation ulcer models were used to test each of compounds (2)-(4) for antiulcer activity. Male rats (140 and 175 g) were selected for pyloric ligation ulcer model experiments and divided into eleven groups consisting of six animals each. The rats were fasted overnight. One group received normal saline 2 ml/kg (negative control), the second group received omeprazole 40 mg/kg (positive control) and the other groups received each of the compounds (2)-(4) (100 mg/kg) by oral route 30 min prior to pyloric ligation. Animals were sacrificed 4 h later and their stomachs were opened to collect the gastric contents. The gastric contents were centrifuged at 1000 rpm for 10 min. One ml of the supernatant liquid was pipetted out and diluted to a total volume of 10 ml with distilled water. The solution was titrated against 0.01 N sodium hydroxide solution using Topfer's reagent to indicate the end point when the solution turned […]. The volume of NaOH consumed was taken as corresponding to the free acidity. Titration was further continued until the solution regained pink color. The volume of sodium hydroxide solution required to achieve the pink color was noted and total acidity calculated. After opening the stomach, the ulcer index was calculated.
The results are expressed as mean±SEM. The difference between groups was determined using the one way analysis of variance (ANOVA) followed by Dunnett's test. P<0.05 was considered significant.

T1 sequence (P19156 2-1034 limits assumed): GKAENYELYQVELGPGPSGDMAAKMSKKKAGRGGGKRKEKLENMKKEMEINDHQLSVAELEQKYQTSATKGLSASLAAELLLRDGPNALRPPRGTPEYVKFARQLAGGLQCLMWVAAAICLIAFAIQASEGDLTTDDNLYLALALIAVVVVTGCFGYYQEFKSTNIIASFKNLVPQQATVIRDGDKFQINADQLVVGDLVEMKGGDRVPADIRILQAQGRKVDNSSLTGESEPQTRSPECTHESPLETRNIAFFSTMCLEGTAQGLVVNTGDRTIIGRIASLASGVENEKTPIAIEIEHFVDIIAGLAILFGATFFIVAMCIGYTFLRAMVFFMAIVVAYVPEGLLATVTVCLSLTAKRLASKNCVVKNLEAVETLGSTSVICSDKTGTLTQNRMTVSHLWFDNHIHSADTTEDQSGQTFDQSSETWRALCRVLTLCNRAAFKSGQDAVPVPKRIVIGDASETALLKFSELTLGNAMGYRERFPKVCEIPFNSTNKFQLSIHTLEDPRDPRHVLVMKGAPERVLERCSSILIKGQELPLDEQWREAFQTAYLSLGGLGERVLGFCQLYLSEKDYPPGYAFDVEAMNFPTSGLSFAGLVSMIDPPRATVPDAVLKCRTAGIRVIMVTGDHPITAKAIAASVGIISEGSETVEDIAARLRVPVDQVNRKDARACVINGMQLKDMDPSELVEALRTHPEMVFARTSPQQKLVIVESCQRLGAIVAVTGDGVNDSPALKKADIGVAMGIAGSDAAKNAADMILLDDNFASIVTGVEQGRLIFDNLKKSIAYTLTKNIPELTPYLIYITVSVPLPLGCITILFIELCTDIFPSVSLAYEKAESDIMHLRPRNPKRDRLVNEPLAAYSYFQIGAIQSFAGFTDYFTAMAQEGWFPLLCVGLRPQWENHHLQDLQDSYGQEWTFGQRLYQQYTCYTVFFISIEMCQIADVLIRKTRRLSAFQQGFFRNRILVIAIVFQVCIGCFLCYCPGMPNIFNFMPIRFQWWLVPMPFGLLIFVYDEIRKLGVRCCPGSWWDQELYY
T1 sequence (P18434 whole entry partner): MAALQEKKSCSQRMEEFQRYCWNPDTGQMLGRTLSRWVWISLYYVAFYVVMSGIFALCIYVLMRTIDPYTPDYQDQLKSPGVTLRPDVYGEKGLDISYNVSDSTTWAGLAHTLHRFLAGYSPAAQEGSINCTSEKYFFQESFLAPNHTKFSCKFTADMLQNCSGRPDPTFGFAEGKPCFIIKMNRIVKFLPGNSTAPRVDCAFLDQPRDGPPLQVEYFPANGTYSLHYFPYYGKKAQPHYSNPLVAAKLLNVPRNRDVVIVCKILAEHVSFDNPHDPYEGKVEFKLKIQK

SMILES: COc1ccc2c(c1)c(CC(=O)O)c(C)n2C(=O)c1ccc(Cl)cc1 [Indomethacin, reference compound]
- Increase in paw edema (ml) ± SEM [1]: 0.25 ± 0.0005 mL
- The anti-inflammatory activity ED50 [2]: 9.568 ± 0.098 µmol
- The anti-inflammatory activity ED50 ([2]; listed as indomethacin): 9.568 µmol

SMILES: COc1ccc2[nH]c([S+]([O-])Cc3ncc(C)c(OC)c3C)nc2c1 (stereo not shown) [Omeprazole, reference compound]
- IC50 (H+/K+-ATPase): 66.1 ± 1.11 µM
- Free acid (pyloric ligation ulcer; gastric contents): 0.43 mEq/L
- Total acid (pyloric ligation ulcer; gastric contents): 0.33 mEq/L
- Ulcer Index (pyloric ligation ulcer): 3.31
